pIC50: −log10 of the molar value.
Assays:
αvβ6 = αvβ6 (Homo sapiens, UniProt P06756+P18564); assay: αv integrin binding assay, αVβ6-LAP-TGF β1 interaction (integrin coupled beads, flow cytometry); conditions: ligand LAP-TGF β1 (LAP1) 10 nM; integrin 10 nM
Experimental: (§1) αVβ6/αVβ8—LAP-TGF β1 Binding Assay
(§2) Integrins αVβ6/αVβ8 coupled beads are treated with an αVβ6/αVβ8 ligand (e.g., LAP TGF-β1 (LAP1)), and the complex is incubated with a primary antibody (Ab), which can be labeled for detection (e.g., fluorescently labeled), and optionally with a secondary antibody, which can be labeled for detection (e.g., fluorescently labeled). Reaction between integrin coupled beads and the ligand was considered as the full reaction, and reaction without the ligand or a compound of the disclosure was considered as the blank reaction. The complex is analyzed, e.g., by either plate reader or Flow Cytometer, to determine modulation of binding between αVβ6/αVβ8 and the ligand (e.g., LAP-TGF Pβ1) by the compounds of the present application. […]
(§3) The integrin coupled Dyna beads were allowed to interact with respective ligands. The integrin-ligand complex was detected with either Primary/Secondary Antibody conjugated with Fluorescein Isothiocyanate (FITC). […] Fluorescence was measured by Flow Cytometry analysis.
(§4) αVβ6/αVβ8—LAP-TGF β1 interaction: αVβ6/αVβ8 coupled beads were treated with the ligand LAP TGF-β1 (LAP1) at room temperature for 3 hours. […] The complex was analyzed by either plate reader or Flow Cytometer. […]
(§5) Quantification: The samples were acquired using a BD FACSCalibur system and analyzed with BD Cell quest pro Version 6. […]

αvβ8 = αvβ8 (Homo sapiens, UniProt P06756+P26012); assay: αv integrin binding assay, αVβ8-LAP-TGF β1 interaction (integrin coupled beads, flow cytometry)
Experimental: as §1, §2, §3, §4, §5

Chain of αvβ8 (P06756 31-992 limits assumed): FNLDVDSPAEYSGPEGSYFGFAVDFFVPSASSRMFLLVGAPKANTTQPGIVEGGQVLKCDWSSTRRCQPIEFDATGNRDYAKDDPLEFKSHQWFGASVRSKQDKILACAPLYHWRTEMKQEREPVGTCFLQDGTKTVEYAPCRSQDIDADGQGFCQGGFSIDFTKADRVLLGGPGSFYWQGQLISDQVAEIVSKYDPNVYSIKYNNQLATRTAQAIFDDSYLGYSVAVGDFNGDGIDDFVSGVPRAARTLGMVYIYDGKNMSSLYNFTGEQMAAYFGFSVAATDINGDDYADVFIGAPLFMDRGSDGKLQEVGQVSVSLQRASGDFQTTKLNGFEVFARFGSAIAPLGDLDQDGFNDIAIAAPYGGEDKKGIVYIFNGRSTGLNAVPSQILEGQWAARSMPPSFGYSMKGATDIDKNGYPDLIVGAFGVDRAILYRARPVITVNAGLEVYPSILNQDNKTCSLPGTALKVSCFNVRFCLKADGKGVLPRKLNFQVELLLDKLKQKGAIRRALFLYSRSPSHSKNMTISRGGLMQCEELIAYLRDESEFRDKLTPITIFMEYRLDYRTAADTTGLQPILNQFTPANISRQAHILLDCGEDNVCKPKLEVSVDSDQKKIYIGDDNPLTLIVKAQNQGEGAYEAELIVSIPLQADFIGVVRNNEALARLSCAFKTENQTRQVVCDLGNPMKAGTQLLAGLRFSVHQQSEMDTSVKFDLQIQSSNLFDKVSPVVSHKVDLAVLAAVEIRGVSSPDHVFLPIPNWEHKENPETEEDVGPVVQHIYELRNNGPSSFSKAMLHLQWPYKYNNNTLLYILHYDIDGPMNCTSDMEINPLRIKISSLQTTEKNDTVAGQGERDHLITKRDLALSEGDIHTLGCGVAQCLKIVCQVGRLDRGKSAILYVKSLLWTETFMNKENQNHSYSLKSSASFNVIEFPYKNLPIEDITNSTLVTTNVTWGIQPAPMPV
Chain of αvβ8 (P26012 43-684 limits assumed): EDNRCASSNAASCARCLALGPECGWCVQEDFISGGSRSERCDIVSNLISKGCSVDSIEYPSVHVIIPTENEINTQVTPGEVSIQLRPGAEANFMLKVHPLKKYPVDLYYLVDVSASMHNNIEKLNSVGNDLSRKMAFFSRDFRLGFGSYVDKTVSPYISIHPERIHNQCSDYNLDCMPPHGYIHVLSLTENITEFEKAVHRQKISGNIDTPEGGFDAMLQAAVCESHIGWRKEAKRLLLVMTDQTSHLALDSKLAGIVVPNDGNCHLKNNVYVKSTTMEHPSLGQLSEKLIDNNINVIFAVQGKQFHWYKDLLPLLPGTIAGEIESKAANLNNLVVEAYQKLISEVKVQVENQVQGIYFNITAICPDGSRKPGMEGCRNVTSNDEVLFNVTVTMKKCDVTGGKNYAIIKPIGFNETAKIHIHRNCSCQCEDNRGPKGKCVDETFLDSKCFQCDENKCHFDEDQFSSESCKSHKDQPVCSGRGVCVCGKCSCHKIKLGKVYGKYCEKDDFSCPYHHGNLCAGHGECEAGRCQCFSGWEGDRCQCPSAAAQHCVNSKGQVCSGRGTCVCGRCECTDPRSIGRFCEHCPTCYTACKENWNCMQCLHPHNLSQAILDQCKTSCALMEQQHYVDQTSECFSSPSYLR
Chain of αvβ6 (P06756 31-992 limits assumed): as the sequence (P06756 31-992 limits assumed) above
Chain of αvβ6 (P18564 22-707 limits assumed): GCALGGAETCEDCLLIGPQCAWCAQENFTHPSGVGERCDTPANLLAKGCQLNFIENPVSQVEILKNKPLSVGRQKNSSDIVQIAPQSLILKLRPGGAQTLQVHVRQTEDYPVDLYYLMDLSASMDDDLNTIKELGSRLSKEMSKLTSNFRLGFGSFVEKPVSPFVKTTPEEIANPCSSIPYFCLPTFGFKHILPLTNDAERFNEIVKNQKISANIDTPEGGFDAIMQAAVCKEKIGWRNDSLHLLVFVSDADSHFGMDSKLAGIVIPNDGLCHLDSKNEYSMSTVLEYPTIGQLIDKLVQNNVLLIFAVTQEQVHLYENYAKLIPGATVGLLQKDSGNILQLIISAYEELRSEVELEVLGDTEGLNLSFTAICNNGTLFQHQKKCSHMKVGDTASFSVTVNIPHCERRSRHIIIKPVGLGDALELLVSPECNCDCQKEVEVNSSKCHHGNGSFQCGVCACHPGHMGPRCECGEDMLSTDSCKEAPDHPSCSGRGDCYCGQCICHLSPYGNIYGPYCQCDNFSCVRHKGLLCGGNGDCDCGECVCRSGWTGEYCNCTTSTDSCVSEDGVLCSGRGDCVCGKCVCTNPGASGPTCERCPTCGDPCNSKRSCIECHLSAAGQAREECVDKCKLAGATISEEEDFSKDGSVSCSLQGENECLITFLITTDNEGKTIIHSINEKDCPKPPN

Which results are given for `COc1ccc([C@H](CC(=O)O)N2CCN(CCCc3ccc4c(n3)NCCC4)C2=O)cn1` [A1, (S)-3-(6-methoxypyridin-3-yl)-3-(2-oxo-3-(3-(5,6,7,8-tetrahydro-1,8-naphthyridin-2-yl)propyl)imidazolidin-1-yl)propanoic acid]?
pIC50 (αvβ6): 8.02; pIC50 (αvβ8; ligand LAP-TGF β1 (LAP1) 20 nM, integrin 10 nM): 7.76; αvβ8/αvβ6 (αvβ8; ratio of αvβ8 IC50 to αvβ6 IC50): 1.83
